Results published in paper PMC3379896 (ACS medicinal chemistry letters, 2012).

What was measured:
[1] = molecular target: T1, MMP-1 (Homo sapiens, UniProt P03956); test: Kinetic inhibition of MMP-1; format: biochemical; details: read-out: MMP-1 inhibition at fixed concentration
T1 sequence (P03956 100-469): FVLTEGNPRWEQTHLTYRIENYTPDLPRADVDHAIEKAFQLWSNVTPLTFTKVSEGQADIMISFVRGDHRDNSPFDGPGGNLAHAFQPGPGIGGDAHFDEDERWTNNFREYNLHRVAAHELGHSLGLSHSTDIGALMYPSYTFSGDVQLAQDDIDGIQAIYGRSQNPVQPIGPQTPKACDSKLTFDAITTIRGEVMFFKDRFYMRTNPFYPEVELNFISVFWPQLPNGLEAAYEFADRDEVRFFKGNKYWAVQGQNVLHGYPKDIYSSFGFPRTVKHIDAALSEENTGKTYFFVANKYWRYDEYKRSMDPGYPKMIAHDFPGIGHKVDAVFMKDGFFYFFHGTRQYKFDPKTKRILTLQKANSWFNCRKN

[2] = molecular target: MMP-14 (Homo sapiens, UniProt P50281); test: Kinetic inhibition of MMP-14; details: slow-binding
[3] = molecular target: T2, MMP-7 (Homo sapiens, UniProt P09237); test: Kinetic inhibition of MMP-7; format: biochemical; details: read-out: MMP-7 inhibition at fixed concentration
T2 sequence (P09237 95-267): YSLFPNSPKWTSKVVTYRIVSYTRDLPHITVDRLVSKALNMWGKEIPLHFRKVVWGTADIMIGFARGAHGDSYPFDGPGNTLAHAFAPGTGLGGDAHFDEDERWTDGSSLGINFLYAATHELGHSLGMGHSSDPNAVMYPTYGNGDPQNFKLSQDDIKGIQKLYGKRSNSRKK

Structure (SMILES) | MMP-14 inhibition, in words [2] | also measured
O=S(=O)(CC1CS1)c1ccc(Oc2ccc(F)cc2)cc1 (stereo not drawn) [Compound 19a] | include MMP-14 in their spectrum of inhibition | inhibition at 20 µM [1]: 0 to 3%
O=S(=O)(CC1CS1)c1ccc(Oc2cccc(F)c2)cc1 (stereo not drawn) [Compound 19b] | include MMP-14 in their spectrum of inhibition | inhibition at 125 µM [3]: 0 to 3%
O=S(=O)(CC1CS1)c1ccc(Oc2ccc(I)cc2)cc1 (stereo not drawn) [Compound 22a] | include MMP-14 in their spectrum of inhibition | inhibition at 10 µM [3]: 0 to 3%; inhibition at 60 µM [1]: 0 to 3%
O=S(=O)(CC1CS1)c1ccc(Oc2ccc(CO)cc2)cc1 (stereo not drawn) [Compound 26] | include MMP-14 in their spectrum of inhibition | 
CC(C)Oc1ccc(Oc2ccc(S(=O)(=O)CC3CS3)cc2)cc1 (stereo not drawn) [Compound 32] | include MMP-14 in their spectrum of inhibition | 
COCOc1ccc(Oc2ccc(S(=O)(=O)CC3CS3)cc2)cc1 (stereo not drawn) [Compound 33a] | include MMP-14 in their spectrum of inhibition | 
O=S(=O)(CC1CS1)c1ccc(Oc2ccc(OC(F)(F)F)cc2)cc1 (stereo not drawn) [Compound 38a] | include MMP-14 in their spectrum of inhibition | inhibition at 20 µM [3]: 0 to 3%
